Source: US8575321B2, “Benzylbenzene derivatives and methods of use” (Theracos, Inc., priority 2007, dated 2013)

Tests used:
human SGLT1 = biological target: T1, human SGLT1 (Homo sapiens, UniProt P13866); assay: Methyl-α-D-[U-14C]glucopyranoside uptake assay in COS-7 cells expressing human SGLT1; format: cell-based; settings: 2 h incubation
T1 construct: Full-length human SGLT1 cDNA on pDream2.1 expression vector; host or cells: COS-7 cells (American Type Culture Collection)
T1 sequence (P13866 1-664): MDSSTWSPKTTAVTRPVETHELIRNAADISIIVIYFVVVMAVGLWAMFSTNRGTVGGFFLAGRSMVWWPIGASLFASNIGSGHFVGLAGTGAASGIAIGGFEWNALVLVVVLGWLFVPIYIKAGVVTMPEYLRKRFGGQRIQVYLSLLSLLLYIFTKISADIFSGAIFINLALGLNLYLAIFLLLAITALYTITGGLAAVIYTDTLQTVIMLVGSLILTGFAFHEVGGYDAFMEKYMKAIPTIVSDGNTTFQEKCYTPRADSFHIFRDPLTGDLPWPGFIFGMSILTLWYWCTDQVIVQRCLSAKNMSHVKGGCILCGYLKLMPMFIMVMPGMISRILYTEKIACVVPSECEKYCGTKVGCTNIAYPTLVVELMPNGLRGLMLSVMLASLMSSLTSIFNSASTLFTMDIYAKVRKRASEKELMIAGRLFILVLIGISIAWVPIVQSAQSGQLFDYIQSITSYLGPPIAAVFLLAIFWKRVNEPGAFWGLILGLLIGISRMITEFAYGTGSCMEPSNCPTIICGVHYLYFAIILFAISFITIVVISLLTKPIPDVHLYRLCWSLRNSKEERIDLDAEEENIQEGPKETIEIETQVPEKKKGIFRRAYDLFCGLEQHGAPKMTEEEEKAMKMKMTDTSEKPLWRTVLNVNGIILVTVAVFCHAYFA
Description: Full-length human SGLT1 cDNA on pDream2.1 expression vector was obtained from GenScript Corporation and propagated in Escherichia coli strain DH5α using Luria-Bertani (LB) medium containing ampicillin. Plasmid DNA was isolated using the QIAGEN Plasmid Midi Kit (QIAGEN Inc.). […] Transfected cells were stored in DMEM containing 10% dimethyl sulfoxide (DMSO) at −80° C.
(§1) Cells expressing SGLT1 or SGLT2 were seeded on 96-well ScintiPlate scintillating plates (PerkinElmer, Inc.) in DMEM containing 10% FBS (1×10^5 cells per well in 100 μl medium) incubated at 37° C. under 5% CO2 for 48 h prior to the assay. Cells were washed twice with 150 μl of either sodium buffer (137 mM NaCl, 5.4 mM KCl, 2.8 mM CaCl2, 1.2 mM MgCl2, 10 mM tris(hydroxymethyl)aminomethane/N^2-hydroxyethylpiperazine-N′-ethanesulfonic acid [Tris/Hepes], pH 7.2) or sodium-free buffer (137 mM N-methyl-glucamine, 5.4 mM KCl, 2.8 mM CaCl2, 1.2 mM MgCl2, 10 mM Tris/Hepes, pH 7.2). Test compound in 50 μl each of sodium or sodium-free buffer containing 40 μCi/ml methyl-α-D-[U-^14C]glucopyranoside (Amersham Biosciences/GE Healthcare), either with (symbols in parentheses) or without (symbols without parentheses) 25% human serum, was added per well of a 96-well plate and incubated at 37° C. with shaking for either 2 h (SGLT1 assay) or 1.5 h (SGLT2 assay). Cells were washed twice with 150 μl of wash buffer (137 mM N-methylglucamine, 10 mM Tris/Hepes, pH 7.2) and methyl-α-D-[U-^14C]glucopyranoside uptake was quantitated using a TopCount scintillation counter (PerkinElmer, Inc.). Sodium-dependent glucopyranoside uptake was measured by subtracting the values obtained with sodium-free buffer from those obtained using sodium buffer (average of triplicate determinations).

human SGLT2 = biological target: T2, human SGLT2 (Homo sapiens, UniProt P31639); assay: Methyl-α-D-[U-14C]glucopyranoside uptake assay in HEK293.ETN cells stably expressing human SGLT2; format: cell-based; settings: 1.5 h incubation
T2 construct: A full-length cDNA clone expressing human SGLT2
T2 sequence (P31639 1-672): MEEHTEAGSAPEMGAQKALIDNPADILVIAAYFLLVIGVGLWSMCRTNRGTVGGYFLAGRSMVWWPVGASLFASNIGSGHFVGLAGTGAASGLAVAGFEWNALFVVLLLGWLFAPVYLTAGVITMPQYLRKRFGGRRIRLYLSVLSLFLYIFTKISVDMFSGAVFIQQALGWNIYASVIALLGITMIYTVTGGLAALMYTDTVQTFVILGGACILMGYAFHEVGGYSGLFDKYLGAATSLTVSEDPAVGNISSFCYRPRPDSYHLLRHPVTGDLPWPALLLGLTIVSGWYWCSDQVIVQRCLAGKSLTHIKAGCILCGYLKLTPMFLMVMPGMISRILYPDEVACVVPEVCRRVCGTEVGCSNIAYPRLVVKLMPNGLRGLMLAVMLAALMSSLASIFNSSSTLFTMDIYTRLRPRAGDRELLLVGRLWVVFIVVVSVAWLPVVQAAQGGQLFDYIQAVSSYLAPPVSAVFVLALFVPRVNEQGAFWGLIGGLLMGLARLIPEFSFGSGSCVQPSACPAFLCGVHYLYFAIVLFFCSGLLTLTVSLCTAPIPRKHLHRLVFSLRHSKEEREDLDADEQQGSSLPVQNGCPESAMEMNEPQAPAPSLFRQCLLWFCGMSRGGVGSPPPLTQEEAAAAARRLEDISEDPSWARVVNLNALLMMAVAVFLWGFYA
Description: A full-length cDNA clone expressing human SGLT2 (GenScript Corporation) was subcloned into Hind III and Not I sites of pEAK15 expression vector. Clones harboring the cDNA inserts were identified by restriction analysis.
Plasmid containing human SGLT2 was linearized with Nsi I and purified by agarose gel electrophoresis. Using Lipofectamine 2000 Transfection Reagent (Invitrogen Corporation), DNA was transfected into HEK293.ETN cells and cultured in Dulbecco's Modified Eagle Medium (DMEM) containing 10% fetal bovine serum (FBS) at 37° C. under 5% CO2 for 24 h. Transfectants were selected in the same growth medium supplemented with puromycin (Invitrogen Corporation) for two weeks. Puromycin-resistant cells were recovered and seeded on a fresh 96-well plate (single cell per well) and cultured in the presence of puromycin until cells became confluent. Puromycin-resistant clones were evaluated for SGLT2 activity in the methyl-α-D-[U-^14C]glucopyranoside uptake assay described below.
as §1

[1] = incubation with 25% human serum (symbols in parentheses)
[2] = without human serum (symbols without parentheses)

| SMILES | IC50 (human SGLT1; [1]) | IC50 (human SGLT2; [1]) | IC50 (human SGLT1; [2]) | IC50 (human SGLT2; [2]) |
| --- | --- | --- | --- | --- |
| C=CCOCCOc1ccc(Cc2cc([C@@H]3O[C@H](CO)[C@@H](O)[C@H](O)[C@H]3O)ccc2Cl)cc1 [Compound P, (2S,3R,4R,5S,6R)-2-(3-(4-(2-(allyloxy)ethoxy)benzyl)-4-chlorophenyl)-6-(hydroxymethyl)tetrahydro-2H-pyran-3,4,5-triol] | 1000 to 10000 nM | < 1000 nM |  |  |
| COCC#CCOc1ccc(Cc2cc([C@@H]3O[C@H](CO)[C@@H](O)[C@H](O)[C@H]3O)ccc2Cl)cc1 [Compound Z, (2S,3R,4R,5S,6R)-2-(4-chloro-3-(4-(4-methoxybut-2-ynyloxy)benzyl)phenyl)-6-(hydroxymethyl)tetrahydro-2H-pyran-3,4,5-triol] | > 10000 nM | < 1000 nM |  |  |
| CC1(OCCOc2ccc(Cc3cc([C@@H]4O[C@H](CO)[C@@H](O)[C@H](O)[C@H]4O)ccc3Cl)cc2)CC1 [Compound CP, (2S,3R,4R,5S,6R)-2-(4-chloro-3-(4-(2-(1-methylcyclopropoxy)ethoxy)benzyl)phenyl)-6-(hydroxymethyl)tetrahydro-2H-pyran-3,4,5-triol] | > 10000 nM | < 1000 nM |  |  |
| OC[C@H]1O[C@@H](c2ccc(Cl)c(Cc3ccc(OCCO[C@H]4CCOC4)cc3)c2)[C@H](O)[C@@H](O)[C@@H]1O [Compound CK, (2S,3R,4R,5S,6R)-2-(4-chloro-3-(4-(2-((S)-tetrahydrofuran-3-yloxy)ethoxy)benzyl)phenyl)-6-(hydroxymethyl)tetrahydro-2H-pyran-3,4,5-triol] | 1000 to 10000 nM | < 1000 nM |  |  |
| OC[C@H]1O[C@@H](c2ccc(Cl)c(Cc3ccc(OCC#CC4CC4)cc3)c2)[C@H](O)[C@@H](O)[C@@H]1O [Compound AV, (2S,3R,4R,5S,6R)-2-(4-chloro-3-(4-(3-cyclopropylprop-2-ynyloxy)benzyl)phenyl)-6-(hydroxymethyl)tetrahydro-2H-pyran-3,4,5-triol] | > 10000 nM | < 1000 nM |  |  |
| OC[C@H]1O[C@@H](c2ccc(Cl)c(Cc3ccc(OCCOCC(F)F)cc3)c2)[C@H](O)[C@@H](O)[C@@H]1O [Compound CF, (2S,3R,4R,5S,6R)-2-(4-chloro-3-(4-(2-(2,2-difluoroethoxy)ethoxy)benzyl)phenyl)-6-(hydroxymethyl)tetrahydro-2H-pyran-3,4,5-triol] |  |  | 1000 to 10000 nM | < 1000 nM |
| OC[C@H]1O[C@@H](c2ccc(Cl)c(Cc3ccc(CCOC(F)F)cc3)c2)[C@H](O)[C@@H](O)[C@@H]1O [Compound BN, (2S,3R,4R,5S,6R)-2-(4-chloro-3-(4-(2-(difluoromethoxy)ethyl)benzyl)phenyl)-6-(hydroxymethyl)tetrahydro-2H-pyran-3,4,5-triol] | > 10000 nM | < 1000 nM |  |  |
